Measured values reported in patent EP3381906A1, “COMPOUNDS FOR USE AS HEPARANASE INHIBITORS” (Leadiant Biosciences SA, priority 2017, dated 2018).

Columns and labels:
heparanase = molecular target: T1, heparanase (Homo sapiens, UniProt Q9Y251); test: AGA*IA assay: heparanase-catalyzed fondaparinux cleavage, colorimetric (WST-1); format: biochemical; details: 2.5 nM heparanase, 100 µM fondaparinux, pH 5.0, 3 h at 37°C; class symbols; read-out: AGAIA assay (IC50)
T1 construct: 100 µM fondaparinux, 2.5 nM heparanase and serial dilutions of test compounds
T1 sequence (Q9Y251 158-543 limits assumed): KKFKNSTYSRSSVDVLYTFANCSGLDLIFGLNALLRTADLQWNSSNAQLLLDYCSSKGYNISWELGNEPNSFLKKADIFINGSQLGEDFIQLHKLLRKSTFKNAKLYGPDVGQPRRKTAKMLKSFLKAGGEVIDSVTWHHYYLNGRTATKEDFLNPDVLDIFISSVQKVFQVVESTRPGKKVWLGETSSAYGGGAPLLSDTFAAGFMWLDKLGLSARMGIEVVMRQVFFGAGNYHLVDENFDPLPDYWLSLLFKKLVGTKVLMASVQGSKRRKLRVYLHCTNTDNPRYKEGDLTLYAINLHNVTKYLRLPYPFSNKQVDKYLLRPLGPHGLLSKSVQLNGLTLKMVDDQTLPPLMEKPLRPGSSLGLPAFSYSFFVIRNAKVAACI
T1 sequence (Q9Y251 36-109 limits assumed): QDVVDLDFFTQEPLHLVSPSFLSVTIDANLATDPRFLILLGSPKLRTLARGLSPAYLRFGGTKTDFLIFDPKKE
Experimental: All compounds were tested in a simple, accurate and robust microplate assay based on the cleavage of the synthetic heparin fragment, the pentasaccharide Fondaparinux (AGA*IA). This assay was originally developed by Hammond and coworkers [Hammond E, Li CP, Ferro V. Development of a colorimetric assay for heparanase activity suitable for kinetic analysis and inhibitor screening. […] Fondaparinux is cleaved by heparanase to generate a reducing disaccharide, which can be quantitatively measured via a colorimetric or a fluorescence assay, the last by the fluorescent sensor polymer-H [Schiemann S, Lühn S, Alban S. Development of both colorimetric and fluorescence heparinase activity assays using fondaparinux as substrate.
The assay measures the appearance of the disaccharide product of heparanase-catalyzed fondaparinux cleavage colorimetrically using the tetrazolium salt WST-1. Assay was essentially performed as described with minor modifications. Briefly, NUNC ELISA 96-well plates were pre-treated with a solution of 4% BSA (bovin serum albumin) in phosphate-buffered saline containing 0.05% Tween 20 (PBST), for 2 h at 37°C, then washed three times with PBST, dried by tapping on paper towel and stored at -20°C. Before use, once again, the plates were washed with PBST.
Then, the absorbance at 560 nm was measured through a microplate reader (Victor 3, Perkin Elmer).
Finally, the measurements were corrected by subtracting both the reagent background and the inner absorbance value of test compound.

[1] = test system: HT1080 (human fibrosarcoma); test: SRB Cell Cytotoxicity Assay; format: cell-based; details: HT-1080, HT1080, treated for 72h, read-out: Concentration of test compounds at which the cell growth is inhibited by 50 % HT1080
Source text: (§1) SRB Cell Cytotoxicity Assay is an assay based upon the quantitative staining of cellular proteins by sulforhodamine B (SRB). This assay can be used for high-throughput drug screening (Vichai & Kirkitara, Nature Protocol. 2006, 1, 112). Sulforhodamine B is an anionic aminoxanthene dye that forms an electrostatic complex with the basic amino acid residues of proteins under moderately acid conditions, which provides a sensitive linear response.
(§2) To assess a putative antiproliferative activity of the selected compounds, HT1080 (human fibrosarcoma), U87MG (human glioblastoma astrocytoma) and U2OS (human osteosarcoma) cell lines were treated for 72h, in triplicate, with increasing concentrations of heparanase inhibitors. Inhibition of cell proliferation was then measured by the classical colorimetric SRB Cell Cytotoxicity assay. Absorbance was measured by spectrophotometer at a wavelength of 510 nm and cell proliferation was determined as percent with respect to control cells (cells treated with the vehicle alone). EC50 values were then determined by GraphPad Prism.

[2] = test system: U2OS (human osteosarcoma); test: SRB Cell Cytotoxicity Assay; format: cell-based; details: treated for 72h, read-out: Concentration of test compounds at which the cell growth is inhibited by 50 % U2OS
Source text: as §1, §2

[3] = test system: U87MG (human glioblastoma astrocytoma); test: SRB Cell Cytotoxicity Assay; format: cell-based; details: U-87 MG, treated for 72h, read-out: Concentration of test compounds at which the cell growth is inhibited by 50 % U87MG
Source text: as §1, §2

[4] = test system: HT1080 (human fibrosarcoma); test: Matrigel cell invasion assay; format: cell-based; details: for inhibition at 2.5 µM: HT-1080, HT1080, Conc. 2.5 µM
Experimental: Heparanase inhibitors were then evaluated for their activity on the invasive potential of HT1080 (human fibrosarcoma) human cell lines, using the Matrigel cell invasion assay which allows to assess the cell invasion ability of malignant and normal cells.
Invasion assay was performed using BioCoat cell culture inserts (BioCoat 8.0µm PET Membrane 24 Well Permeable Supports, Corning). Filters were coated with 100 µl of 300 µg/ml Matrigel dissolved in coating buffer (0.01M Tris pH 8.0, 0.7% NaCl) (Becton-Dickinson Sciences). DMEM (Dulbecco's Modified Eagle's Medium) containing 5% FBS was added to the lower chambers. Cells were pre-treated with heparanase inhibitors for 24 h, detached and added to the upper chambers in media containing the inhibitors. Cells were allowed to invade for 24 h at 37°C in a CO2 incubator and then unmigrated cells were removed from the upper chamber with a cotton swab. The invading cells were fixed, stained with 0.1% crystal violet for 10 min at room temperature, photographed and counted under inverted microscope.
Test compounds were analyzed at fixed concentration for several fields, in duplicates. Activity of test compounds was compared to the reference compound. Activity of most interesting compound was confirmed in a second cell invasion assay. Data were expressed as the percent invasion with respect to cell migration through uncoated insert membrane. (Table 5)

U87MG [5] = test: Matrigel cell invasion assay; format: cell-based, human; set-up: key to Invasion Assay Inhibition (%) U87MG: +++: > 90%; ++: 50-90 %; +: < 50%; -: Not active; details: for inhibition at 2.5 µM: Homo sapiens, U-87 MG, Conc. 2.5 µM
U2OS = test: Matrigel cell invasion assay; format: cell-based, human; set-up: key to Invasion Assay Inhibition (%) U2OS: +++: > 90%; ++: 50-90 %; +: < 50%; -: Not active; details: for inhibition at 2.5 µM: Homo sapiens, Conc. 2.5 µM
[6] = test system: HT1080 (human fibrosarcoma); test: Cell adhesion assay on matrigel coated wells; format: cell-based; details: percent of adhesion with respect to the control (100%)
Experimental: Cell surface, non-integrin molecules such as heparan sulfate proteoglycans (HSPGs) may be involved in the regulation of early adhesive stages of cell-ECM interactions. A cell adhesion assay has been employed to determine if the newly designed heparanase inhibitors were able to interfere with adhesion properties of cancer cells.
HT1080 (human fibrosarcoma) cells were treated for 18-20 h with test compounds in complete medium supplemented with 10% FCS. Then cells were collected, washed in complete medium, and added to matrigel coated wells in triplicate, at previously identified optimal seeding density, and incubated at 37 °C in complete medium for times ranging from 15 minutes to 4h, according to the cell line. After incubation, the wells were washed three times with serum-free medium and the remaining firmly attached cells were stained with crystal-violet 0.1%. Optical density was measured at 560 nm by Victor 3 (Perkin-Elmer) plate analyzer. Each experiment was repeated three times.

U87MG [7] = test: Cell adhesion assay on matrigel coated wells; format: cell-based, human; details: percent of adhesion with respect to the control (100%)
FGF-1 = test: Real-Time Quantitative PCR of pro-angiogenic genes in HT1080 cells; format: cell-based, human; details: 24 h, Conc 2.5 uM
Experimental: (§3) To evaluate the effect of heparanase inhibitors on the tumor transcription of genes encoding for proangiogenic factors, such as FGF1/2, VEGF, MMP-9, HSPE-1, the relative mRNA levels were analyzed by quantitative Real-Time Quantitative PCR. To perform the assay, HT1080 (human fibrosarcoma) cells were cultured in complete medium containing 10%FCS (fetal calf serum). Cells were plated in 24-well plates and treated at fixed concentration (i.e., highest non-toxic concentration) of test compounds. After 24 h, cells were detached, collected and total RNA extracted by RNeasy Mini Kit (QIAGEN). Following reverse transcription step, FGF1/2, VEGF, MMP-9, HSPE-1 mRNA levels, were quantified by qPCR using the advanced Universal SYBR Green Supermix (Bio Rad) and ABI PRISM 7900HT Thermal Cycler System (Perkin Elmer), according to the manufacturer's instructions. Appropriate no-RT and non-template controls were included in each 96-well PCR reaction, and dissociation analysis was performed at the end of each run to confirm the specificity of the reaction. Relative levels of RNA were calculated using the ddCt method. Standard curve and sample data were run in duplicate. In the Table a mean value is reported.

FGF-2 = test: as above; format: cell-based, human; details: 24 h, Conc 2.5 uM
Experimental: as §3

MMP-9 = test: as above; format: cell-based, human; details: 24 h, Conc 2.5 uM
Experimental: as §3

VEGF = test: as above; format: cell-based, human; details: 24 h, Conc 2.5 uM
Experimental: as §3

[8] = test system: genes encoding for proangiogenic factors, such as FGF1/2, VEGF, MMP-9, HSPE-1; test: Real-Time Quantitative PCR in HT1080 cells; format: cell-based, human; details: compared with SST0001 tested at 10 µM
Experimental: as §3

Row | IC50 (heparanase) [nM] | SMILES | EC50 [1] [nM] | EC50 [2] [nM] | EC50 [3] [nM] | inhibition at 2.5 µM [4] [%] | inhibition at 2.5 µM (U87MG [5]) [%] | inhibition at 2.5 µM (U2OS) [%] | Adhesion Assay (%) HT1080 ([6]; HT1080, Conc. 2.5 µM) | Adhesion Assay (%) U87MG (U87MG [7]; Conc. 2.5 µM) | Gene Expression (% mRNA vs. control) FGF-1 (FGF-1) | Gene Expression (% mRNA vs. control) FGF-2 (FGF-2) | Gene Expression (% mRNA vs. control) MMP-9 (MMP-9) | Gene Expression (% mRNA vs. control) VEGF (VEGF) | potency in silencing gene expression [8] | inhibition at 10 µM ([4]; HT-1080, HT1080, Conc. 10 µM) [%] | Invasion Assay Inhibition (%) U87MG (U87MG [5]; Conc. 10 µM) | Invasion Assay Inhibition (%) U2OS (U2OS; Conc. 10 µM) | Adhesion Assay (%) HT1080 ([6]; HT1080, Conc. 10 µM) | Adhesion Assay (%) U87MG (U87MG [7]; Conc. 10 µM)
1 | 50 to 490 | O=C(Nc1cccc(-c2nc3ccccc3[nH]2)c1)c1ccc(Oc2ccc(C(=O)Nc3cccc(-c4nc5ccccc5[nH]4)c3)cc2)cc1 [SST0656, N-[3-(1H-benzimidazol-2-yl)phenyl]-4-[4-[[3-(1H-benzimidazol-2-yl)phenyl]carbamoyl]phenoxy]benzamide] | > 2500 | > 2500 | > 2500 | < 50 | < 50 | < 50 | ∼ 87% | ∼ 97% |  |  |  |  |  |  |  |  |  | 
2 |  | O=C(Nc1ccc(-c2nc3ccccc3[nH]2)cc1)c1ccc(C(=O)Nc2ccc(-c3nc4ccccc4[nH]3)cc2)cc1 [SST0856, 1,4-Benzenedicarboxamide, N1,N4-bis[4-(1H-benzimidazol-2-yl)phenyl]-] |  |  |  | < 50 | < 50 | 50 to 90 | ∼ 98% | ∼ 99% | ∼ 53% | ∼ 76% | ∼ 55% | ∼ 54% | in the same range of reference compound SST0001 |  |  |  |  | 
3 |  | O=C(O)c1ccc2c(c1)C(=O)N(c1ccc(NC(=O)c3cccc(C(=O)Nc4ccc(N5C(=O)c6ccc(C(=O)O)cc6C5=O)cc4Cl)c3)c(Cl)c1)C2=O [SST0859, 2-[4-[[3-[[4-(5-carboxy-1,3-dioxoisoindol-2-yl)-2-chlorophenyl]carbamoyl]benzoyl]amino]-3-chlorophenyl]-1,3-dioxoisoindole-5-carboxylic acid] |  |  |  | < 50 | < 50 | 50 to 90 | ∼ 95% | ∼ 100% | ∼ 67% | ∼ 73% | ∼ 40% | ∼ 61% | in the same range of reference compound SST0001 |  |  |  |  | 
4 |  | Cc1ccc(C(=O)Nc2ccc(S(=O)(=O)O)c3cc(S(=O)(=O)O)cc(S(=O)(=O)O)c23)cc1NC(=O)c1cccc(NC(=O)Nc2cccc(C(=O)Nc3cc(C(=O)Nc4ccc(S(=O)(=O)O)c5cc(S(=O)(=O)O)cc(S(=O)(=O)O)c45)ccc3C)c2)c1 [Suramin, reference compound] | > 10000 | > 10000 | > 10000 |  |  |  |  |  |  |  |  |  |  | < 50 | - | - | ∼ 100% | ∼ 73%
